Assay results reported in patent US6835755B1, “Naphthoquinone derivatives and their use in the treatment and control of tuberculosis” (priority 1999, dated 2004).
In brackets after ≈: the same amount, converted by molar mass.

Tested on: Mycobacterium tuberculosis sensitive strain (H37Rv)
Assay: microbe, parasite or virus in culture
Type: cell-based
Details: for ΔGI values of plant extracts: at MIC, mean ± s.d.

Row | SMILES | ΔGI values of plant extracts (H37Rv sensitive strain ATCC27294) | MIC (Minimal inhibitory concentration) (H37Rv sensitive strain ATCC27294, radiometric method) [µg/mL] | ΔGI values of plant extracts (H37 sensitive strain) | MIC (Mycobacterium tuberculosis, H37RV, H37 sensitive strain, radiometric method) [µg/mL]
1 | Cc1cc(O)c2c(c1)C(=O)C=CC2=O [7-methyljuglone, 5-hydroxy-7-methyl-1,4-naphtoquinone] | 0 ± 1 | 50 (≈ 266 µM) | – | –
2 | Cc1cc(O)c2c(c1)C(=O)C(c1c(C)cc3c(c1O)C(=O)C=CC3=O)=CC2=O [diospyrin, 5,5′ dihydroxy 7,7′ binaphthoquinone] | – | – | −1 ± 1.41 | 100 (≈ 267 µM)
